Legend:
WHCO6 tumours = experiment: Xenograft tumour model; assay type: in vivo; conditions: female nude mice, 50 mg/kg i.p. every 2-3 days for 3 weeks (FIG. 28)
Procedure: WHCO6 cells were harvested and resuspended in PBS. For tumour inoculation, cancer cells (5×10^6 per mouse) were s.c. implanted into the hind flanks of female nude mice. Once tumours had reached a palpable size, drug treatment was initiated, where tumour-bearing mice were randomized and dosed i.p. with either vehicle (DMSO) or Compound A (50 mg/kg), every 2-3 days for 3 weeks. Tumour volumes were measured twice a week, using calipers, and tumour volume estimated using the following formula: volume=(length×width×width)/2. Mice were sacrificed 3 weeks after the commencement of drug treatment.

[1] = tested on: NFY nuclear localisation in CaSki cells; experiment: Nuclear and cytoplasmic protein extraction, Western Blot; assay type: cell-based; conditions: IC50 concentration, 48 hours (FIGS. 11, 12)
Procedure: (§1) Nuclear and cytoplasmic protein fractionation was performed using the NE-PER Nuclear Protein Extraction Kit (ThermoScientific, Rockford, Ill., USA), according to the manufacturer's instructions. […] Western Blot analysis was performed using a goat anti-Karyopherin α2 (C-20) antibody (sc-6917, Santa Cruz Biotechnology), and a rabbit anti-NFYA (H-209) antibody (sc-10779, Santa Cruz Biotechnology). An anti-β-tubulin (H-235) antibody (sc-9104, Santa Cruz Biotechnology) was used to control for cytoplasmic protein loading and a rabbit anti-TATA-box binding protein (TBP) (N-12) and antibody (sc-204, Santa Cruz Biotechnology) to control for nuclear protein loading. Densitometry was performed using Image J.

[2] = tested on: endogenous Kpnα2 nuclear localisation in CaSki cells; experiment: as above; assay type: cell-based; conditions: IC50 concentration, 48 hours (FIGS. 11, 12)
Procedure: as §1

[3] = tested on: p65/NFκB transcriptional activity in CaSki cells; experiment: p65 luciferase reporter assay; assay type: cell-based; conditions: 10 or 15 μM, 24 hours (FIG. 15)
Procedure: To assay for AP-1 and p65 luciferase activities, 40 000 CaSki cells were plated in 24-well plates, and transfected with 50 ng of an API luciferase reporter (containing four copies of the AP-1 binding site) or 50 ng of a p65 luciferase reporter (containing five copies of the p65 binding site, Clontech, CA, USA) and 5 ng pRL-TK (encoding Renilla luciferase, Promega), using 0.16 μl TransFectin™ lipid reagent (Bio-Rad, Hercules, Calif., USA). The following day cells were treated with 10 or 15 μM Compound A. Luciferase activity was measured 24 hours after Compound A treatment using the Dual-LuciferaseR Reporter assay system (Promega, Madison, Wis., USA), according to the manufacturers' instructions. Luciferase readings were measured using the Veritas™ microplate luminometer (Promega) and luciferase readings were normalised to Renilla luciferase in the same extract.

cancer cell lines = experiment: MTT cell viability, summary statements over panels of cancer cell lines; assay type: cell-based; conditions: cervical, oesophageal, ovarian and breast cancer cell lines (Table 11); read-out: IC50
Procedure: (§2) Cells were plated in 96-well plates and treated with varying concentrations of a test compound for 48 hours, after which MTT dye, 3-(4,5-dimethylthiazol-2-yl)-2,5-diphenyltetrazolium bromide (Sigma), was added, and crystals solubilised 4 hours later using Solubilisation Reagent (10% SLS in 0.01 M HCl). Absorbencies were measured at 595 nm the following day using a BioTek microplate spectrophotometer (Winooski, Vt., USA) and IC50 curves were generated using GraphPad Prism.

HeLa and KYSE30 cells = experiment: Anchorage-independent colony formation; assay type: cell-based; conditions: 10 μM; polyheme-coated plates, 9 days (FIG. 23)
Procedure: The anchorage-independent proliferation of cancer cells was measured in response to Compound A treatment, as cells grown in this manner are more representative of tumour cells in vivo. Cells were grown on polyheme-coated plates and cell proliferation monitored 9 days after treatment, using MTT assays.

[4] = tested on: CaSki, HeLa, KYSE30 and WHCO6 cancer cells; experiment: Cell proliferation assay (MTT), cancer cells; assay type: cell-based
Procedure: (§3) To assay for cell proliferation after Compound A treatment, 5000 cells/well were plated in 96-well plates and treated with 5, 10 or 15 μM Compound A, after which cell proliferation was monitored every 24 hours for four days, using MTT.
(§4) This effect was sustained for the full 5 day time period, confirming that there was no population of cells that recovered from the treatment.

[5] = tested on: non-cancer fibroblast cells; experiment: MTT cell viability, summary statement for non-cancer cells; assay type: cell-based
Procedure: as §2

CaSki cells = experiment: Cell cycle analysis; assay type: cell-based; conditions: 24 hours (FIGS. 24 and 25)
Procedure: CaSki cells were plated in 60 mm dishes and treated with the appropriate concentration of Compound A. Cells were harvested 24 hours after treatment, and fixed in 100% ethanol, after which they were stained with Propidium Iodide and the cell cycle profiles analysed using a BD flow cytometer (BD Biosciences, NJ, USA). Data analysis was performed using ModFit 3.3 software.

[6] = tested on: DMB and FG0 non-cancer fibroblast cells; experiment: Cell proliferation assay (MTT), non-cancer cells; assay type: cell-based
Procedure: as §3, §4

[7] = tested on: NFAT transcriptional activity in NFAT-transfected HeLa cells; experiment: NFAT luciferase reporter assay; assay type: cell-based; conditions: stimulated with TPA and ionomycin (FIGS. 16-20)
Procedure: To assay for NFAT luciferase activity, 30 000 HeLa cells were plated per well in 24-well plates, and transfected with 50 ng GFP-NFAT plasmid (Addgene plasmid #24219, gift of Jerry Crabtree (Beals C R, Clipstone N A, Ho S N, Crabtree G R. Nuclear localization of NF-ATc by a calcineurin-dependent, cyclosporin-sensitive intramolecular interaction. Genes Dev 1997 Apr. 1; 11(7):824-34)), 50 ng NFAT-luciferase (Addgene plasmid #10959, gift of Toren Finkel (Ichida M, Finkel T. Ras regulates NFAT3 activity in cardiac myocytes. J Biol Chem 2001 Feb. 2; 276(5):3524-30)), and 5 ng pRL-TK, using 0.4 μl Genecellin™ Transfection Reagent (Celtic Molecular Diagnostics, South Africa). The NFAT-luciferase reporter plasmid contains three tandem repeats of a 30 bp fragment of the IL-2 promoter known to bind NFAT. The following day cells were treated with 10 or 15 μM Compound A and after an overnight incubation, stimulated with 100 nM TPA (Sigma) and 1.3 μM Ionomycin (Santa Cruz Biotechnology, Santa Cruz, Calif., USA) for 5 hours, following which luciferase activity was measured.
An assay for nuclear NFAT following ionomycin and Compound A treatment was carried out, using an NFAT-luciferase reporter that is activated by nuclear NFAT. The phorbol ester TPA was used to co-stimulate NFAT, as it has been shown previously that TPA and ionomycin elicit synergistic stimulation of NFAT luciferase activity (Northrop J P, Ullman K S, Crabtree G R. Characterization of the nuclear and cytoplasmic components of the lymphoid-specific nuclear factor of activated T cells (NF-AT) complex. J Biol Chem 1993 Feb. 5; 268(4):2917-23).

IC50 (cancer cell lines): ~10 µM
SMILES: CN(C)CCCn1c(N)c(-c2nc3ccccc3[nH]2)c2nc3ccccc3nc21 [Compound A, 3-(1H-benzimidazol-2-yl)-1-(3-dimethylaminopropyl)pyrrolo[5,4-b]quinoxalin-2-amine]
tumour growth (normalised tumour volume) (WHCO6 tumours): significantly inhibits tumour growth
NFY in the nuclear fraction [1]: decrease
amount of Kpnα2 in the nucleus [2]: decrease
p65 luciferase activity [3]: decreased in a dose-dependent manner
anchorage-independent colony formation (HeLa and KYSE30 cells): unable to form colonies
cell death ([4]; 10 μM (FIG. 22)): 100%
cell death in proliferation assay ([4]; 10 and 15 μM, within 24 hour (FIG. 21 A-D)): complete cell death
IC50 [5]: 20 to 30 µM
percentage of cells in the G1 stage of the cell cycle (CaSki cells): increase
percentage of cells in the S and G2/M stages (CaSki cells): decrease
cell proliferation ([6]; 10 μM (FIGS. 21 E and F)): proliferated relatively normally
time within which cell death occurred ([6]; 15 μM): 24 to 48 h
NFAT activation (NFAT-luciferase reporter) [7]: significantly diminished NFAT activation
